Reference: ChEMBL document CHEMBL4339233, “Structure-activity relationship study of antitrypanosomal chalcone derivatives using multivariate analysis” (Bioorg Med Chem Lett, 2019)

Legend:
Trypanosoma cruzi = test: Antitrypanosomal activity against Trypanosoma cruzi Y trypomastigotes infected in LLC-MK2-ATCC CCL7 cells assessed as reduction in parasite growth incubated for 24 hrs by Alamar blue dye based assay; format: functional, organism-based
[1] = Cytotoxicity in mouse NCTC-929 cells assessed as reduction in cell viability incubated for 48 hrs by MTT assay; format: cell-based; conditions: NCTC-929 (L929) cells
[2] = Selectivity index, ratio of CC50 for cytotoxicity in mouse NCTC-929 cells to EC50 for Antitrypanosomal activity against Trypanosoma cruzi trypomastigotes infected in LLC-MK2-ATCC CCL7 cells; format: toxicity, cell-based; conditions: read-out: Ratio CC50/EC50

SMILES | EC50 (Trypanosoma cruzi) [µM] | CC50 at 48 h [1] [µM] | selectivity ratio [2]
COc1ccc(C(=O)/C=C/c2ccc([N+](=O)[O-])cc2)cc1 | > 100 | > 200 | –
COc1cc(CCC(O)c2ccc(-c3ccccc3)cc2)cc(OC)c1OC (racemic) | 28.3 | 95.6 | 3.4
O=C(/C=C/c1ccccc1)c1ccccc1O [2'-HYDROXYCHALCONE] | 28.8 | 79.5 | 2.8
CN(C)c1ccc(/C=C/C(=O)c2ccc(Cl)cc2)cc1 | > 100 | > 200 | –
O=C(CCc1ccc2c(c1)OCO2)c1ccc(Cl)cc1 | > 100 | > 200 | –
O=C(Cn1ccnc1[N+](=O)[O-])NCc1ccccc1 [BENZNIDAZOLE] | 16.5 | > 200 | –
COc1ccc(C(=O)/C=C/c2ccccc2)cc1 [4'-METHOXYCHALCONE] | > 100 | 50.4 | –
Oc1ccccc1C(O)CCc1ccccc1 (racemic) | > 100 | > 200 | –
O=C(/C=C/c1ccc2c(c1)OCO2)c1cccc(O)c1 | 26.5 | 24.5 | 1
C=CCOc1ccccc1C(=O)/C=C/c1ccccc1 | 10.6 | 77.6 | 7.3
COc1ccc(C(=O)/C=C/c2ccc(Cl)cc2)cc1 | > 100 | 120 | –
COc1ccc(C(=O)/C=C/c2ccc(N(C)C)cc2)cc1 | > 100 | > 200 | –
CN(C)c1ccc(/C=C/C(=O)c2ccccc2O)cc1 | > 100 | 50.4 | –
CN(C)c1ccc(CCC(O)c2cccc(O)c2)cc1 (racemic) | > 100 | > 200 | –
OC(CCc1ccc2c(c1)OCO2)c1ccc(Cl)cc1 (racemic) | > 100 | > 200 | –
CN(C)c1ccc(/C=C/C(=O)c2ccccc2)cc1 | 73.2 | 117 | 1.6
CN(C)c1ccc(/C=C/C(=O)c2ccc([N+](=O)[O-])cc2)cc1 | > 100 | > 200 | –
COc1cc(/C=C/C(=O)c2ccccc2)cc(OC)c1OC | 18.4 | 27.3 | 1.5

SMILES | EC50 (Trypanosoma cruzi) [µM] | CC50 at 48 h [1] [µM] | selectivity ratio [2]
COc1ccc(C(=O)/C=C/c2ccc3c(c2)OCO3)cc1 | > 100 | > 200 | –
O=[N+]([O-])c1ccc(C(O)CCc2ccccc2)cc1 (racemic) | > 100 | > 200 | –
O=C(/C=C/c1ccccc1)c1ccccc1 [CHALCONE] | 26.9 | 89.3 | 3.3
O=C(/C=C/c1ccccc1)c1ccc(-c2ccccc2)cc1 | > 100 | > 200 | –
CN(C)c1ccc(/C=C/C(=O)c2cccc(N)c2)cc1 | > 100 | 101 | –
COc1cc(/C=C/C(=O)c2ccc(-c3ccccc3)cc2)cc(OC)c1OC | 3.3 | 29 | 8.9
O=C(/C=C/c1ccc2c(c1)OCO2)c1ccccc1 | 60.9 | 100 | 1.6
O=C(/C=C/c1ccc2c(c1)OCO2)c1ccc([N+](=O)[O-])cc1 | > 100 | > 200 | –
CN(C)c1ccc(/C=C/C(=O)c2cccc(O)c2)cc1 | 28.6 | > 200 | > 7
O=C(/C=C/c1ccccc1)c1cccc(O)c1 | 26 | 29.9 | 1.1
CN(C)c1ccc(/C=C/C(=O)c2ccc(-c3ccccc3)cc2)cc1 | > 100 | > 200 | –
O=C(/C=C/c1ccc2c(c1)OCO2)c1ccccc1O | > 100 | 140 | –
O=C(/C=C/c1ccccc1)c1ccc([N+](=O)[O-])cc1 | 13.9 | 127 | 9.1
CN(C)c1ccc(CCC(=O)c2cccc(O)c2)cc1 | > 100 | > 200 | –
O=C(/C=C/c1ccc2c(c1)OCO2)c1ccc(Cl)cc1 | 60 | > 200 | –
C=CCOc1ccccc1C(=O)/C=C/c1ccc2c(c1)OCO2 | 18.9 | 82.3 | 4.3
O=C(CCc1ccccc1)c1ccc([N+](=O)[O-])cc1 | > 100 | > 200 | –
COc1cc(CCC(=O)c2ccc(-c3ccccc3)cc2)cc(OC)c1OC | > 100 | > 200 | –
